For 43 compounds, EC50 and CC50 results are on record in patent publication US10676429B2, “Sulfamoyl-arylamides and the use thereof as medicaments for the treatment of hepatitis B” (priority 2012, dated 2020).

The subject of series [1] is HBV. The series can be described thus: Anti-HBV activity in HepG2.117 cell line (Tet-off, intracellular HBV DNA, realtime PCR). The format is cell-based. The note with it: Hepatitis B virus, HepG2.117, 72 h.
Series [2] deals with HBV. The experiment in a line: Anti-HBV activity in stable transfected HepG2.2.15 cell line (HBV DNA from secreted virions, realtime PCR). In kind it is cell-based. The note with it: Hepatitis B virus, HepG2.2.15, 144 h.
Series [3] is described as follows: Cytotoxicity in HepG2 cells, 4 days, Resazurin assay. The note with it: human, HepG2 cells. In general terms: The colour change of resazurin is a common sign of viable cells or microbes.
The mark [4] stands for this setting: HepG2.117 cells, 3 days of treatment, intracellular HBV DNA, read-out: HepG2 117 EC50.
The mark [5] stands for this setting: HepG2.2.15 cells, 6 days of treatment, secreted virion HBV DNA, read-out: HepG2 2.15 EC50.

As a reminder, the EC50 is the concentration that produces a half-maximal response. One may read the CC50 as the concentration giving 50% cytotoxicity. Low readings indicate harm at low concentration, high ones better tolerance by the cells. Regarding `CC1(NS(=O)(=O)c2cccc(C(=O)Nc3ccc(F)c(CF)c3)c2)COC1` [Compound 127], the values for the EC50 in the series with HBV [1] (setting [4]) and in the series with HBV [2] (setting [5]) were 0.58 µM and 0.23 µM, respectively. Moreover, in series [3], the CC50 at 4 days is > 25000 nM.
Turning to `Cc1cc(NC(=O)c2cccc(S(=O)(=O)NC3CC4CCC3O4)c2)ccc1F` (stereo not drawn) [Compound 128], the EC50 in the series with HBV [1] (setting [4]) is 0.54 µM; in the series with HBV [2] (setting [5]), 0.23 µM. For the same compound, the CC50 at 4 days in series [3] was > 25000 nM.
For `Cc1cc(NC(=O)c2cccc(S(=O)(=O)N[C@@H]3CCOC3)c2)ccc1F` [Compound 129] the same measures were 0.78 µM, 0.35 µM and > 25000 nM.
For `Cc1cc(NC(=O)c2cccc(S(=O)(=O)N[C@H]3CCCC[C@@H]3O)c2)ccc1F` [Compound 131], the figures for the EC50 with HBV [1] (setting [4]) and in the series with HBV [2] (setting [5]) were 1.74 µM and 2.63 µM, respectively. In addition, in series [3], the CC50 at 4 days is > 25000 nM.
Turning to `Cc1cc(NC(=O)c2cccc(S(=O)(=O)N[C@H]3CC[C@H](O)CC3)c2)ccc1F` [Compound 133], the EC50 in the series with HBV [1] (setting [4]) turned out to be 1.69 µM; with HBV [2] (setting [5]), 0.6 µM. Moreover, the CC50 at 4 days in series [3] is > 25000 nM.
As for `Cc1cc(NC(=O)c2cccc(S(=O)(=O)N3CC4(COC4)C3)c2)ccc1F` [Compound 135], the results for the EC50 with HBV [1] (setting [4]) and with HBV [2] (setting [5]) were 0.36 µM and 0.56 µM, respectively. In addition, the CC50 at 4 days in series [3] is > 25000 nM.
For `Cc1cc(NC(=O)c2cccc(S(=O)(=O)N[C@@H]3c4ccccc4C[C@@H]3O)c2)ccc1F` [Compound 136] the same measures were 0.81 µM, 0.47 µM and > 25000 nM.
On to `Cc1cc(NC(=O)c2cccc(S(=O)(=O)N[C@@H]3CCc4ccccc4[C@@H]3O)c2)ccc1F` [Compound 137], for which the EC50 in the series on HBV [1] (setting [4]) came to 0.92 µM; in the series on HBV [2] (setting [5]), 0.66 µM. Moreover, it took 23700 nM to reach half-maximal cytotoxicity in series [3] (CC50 at 4 days).
Consider `Cc1cc(NC(=O)c2cccc(S(=O)(=O)N[C@H]3CCC[C@@H]3O)c2)ccc1F` [Compound 138], for which the EC50 in the series on HBV [1] (setting [4]) was 2.27 µM; with HBV [2] (setting [5]) it was 1.28 µM. For the same compound, the CC50 at 4 days in series [3] is > 25000 nM.
As to `Cc1cc(NC(=O)c2cccc(S(=O)(=O)N[C@H]3CCC[C@H]3O)c2)ccc1F` [Compound 139], the EC50 in the series on HBV [1] (setting [4]) stood at 1.75 µM; in the series with HBV [2] (setting [5]), 1 µM. The CC50 at 4 days in series [3] was > 25000 nM.
For `Cc1cc(NC(=O)c2cccc(S(=O)(=O)NC3CCS(=O)(=O)C3)c2)ccc1F` (stereo not drawn) [Compound 140] the same measures were 1.12 µM, 1.1 µM and > 25000 nM.
For `Cc1cc(NC(=O)c2cccc(S(=O)(=O)NC3Cc4ccccc4C3O)c2)ccc1F` (stereo not drawn) [Compound 141] the same measures were 0.6 µM, 0.36 µM and > 25000 nM.
As to `Cc1cc(NC(=O)c2cccc(S(=O)(=O)N[C@H](C)[C@H](O)c3ccccc3)c2)ccc1F` [Compound 142], the EC50 is 0.56 µM in the series with HBV [1] (setting [4]) and 0.14 µM in the series on HBV [2] (setting [5]). For the same compound, the CC50 at 4 days in series [3] is > 25000 nM.
For `Cc1cc(NC(=O)c2cccc(S(=O)(=O)N[C@@H](C)[C@H](O)c3ccccc3)c2)ccc1F` [Compound 143] the same measures were 2.66 µM, 0.91 µM and > 25000 nM.
For `Cc1cc(NC(=O)c2cccc(S(=O)(=O)N[C@H](C)[C@@H](O)c3ccccc3)c2)ccc1F` [Compound 144] the same measures were 0.24 µM, 0.13 µM and > 25000 nM.
For `Cc1cc(NC(=O)c2cccc(S(=O)(=O)NC3CCC(O)C3)c2)ccc1F` (stereo not drawn) [Compound 145] the same measures were 0.27 µM, 0.22 µM and > 25000 nM.
`Cc1cc(NC(=O)c2cccc(S(=O)(=O)N3CC4(CCOC4)C3)c2)ccc1F` [Compound 146]: the EC50 was 0.42 µM in the series with HBV [1] (setting [4]) and 0.45 µM in the series with HBV [2] (setting [5]). In series [3], the CC50 at 4 days was > 25000 nM.
For `Cc1cc(NC(=O)c2cccc(S(=O)(=O)N3CCC34COC4)c2)ccc1F` [Compound 147] the same measures were 0.15 µM, 0.26 µM and > 25000 nM.
For `Cc1cc(NC(=O)c2cccc(S(=O)(=O)N[C@@H](C)C3CCCCC3)c2)ccc1F` [Compound 148] the same measures were 3.11 µM, 0.9 µM and 18200 nM.
In the case of `Cc1cc(NC(=O)c2cccc(S(=O)(=O)NC3CCC(F)(F)CC3)c2)ccc1F` [Compound 149], the EC50 was 0.73 µM with HBV [1] (setting [4]) and 0.22 µM with HBV [2] (setting [5]). In series [3], this compound came in with a CC50 at 4 days of 20800 nM.
On to `C=CC(C)NS(=O)(=O)c1cccc(C(=O)Nc2ccc(F)c(C)c2)c1` (stereo not drawn) [Compound 150], for which the EC50 in the series with HBV [1] (setting [4]) came to 0.73 µM; in the series on HBV [2] (setting [5]), 0.1 µM. In addition, the CC50 at 4 days in series [3] is > 25000 nM.
For `Cc1cc(NC(=O)c2cccc(S(=O)(=O)N[C@@H](C)C(C)C)c2)ccc1F` [Compound 151] the same measures were 2.74 µM, 0.66 µM and > 25000 nM.
Consider `Cc1cc(NC(=O)c2cccc(S(=O)(=O)N[C@H](C)C3CC3)c2)ccc1F` [Compound 152], for which the EC50 is 0.57 µM in the series on HBV [1] (setting [4]) and < 0.1 µM with HBV [2] (setting [5]). Further, the CC50 at 4 days in series [3] was > 25000 nM.
In the case of `Cc1cc(NC(=O)c2cccc(S(=O)(=O)NC(C)CCc3ccccc3)c2)ccc1F` (stereo not drawn) [Compound 153], the EC50 is 0.25 µM in the series with HBV [1] (setting [4]) and 0.22 µM in the series on HBV [2] (setting [5]). Further, the CC50 at 4 days in series [3] was > 25000 nM.
Consider `Cc1cc(NC(=O)c2cccc(S(=O)(=O)NC3CCCN(C(=O)OC(C)(C)C)C3)c2)ccc1F` (stereo not drawn) [Compound 155], for which the results for the EC50 with HBV [1] (setting [4]) and in the series on HBV [2] (setting [5]) were 0.81 µM and 0.36 µM, respectively. Also, the CC50 at 4 days in series [3] is > 25000 nM.
As for `Cc1cc(NC(=O)c2cccc(S(=O)(=O)NC3CCN(C(=O)OC(C)(C)C)C3)c2)ccc1F` (stereo not drawn) [Compound 156], the figures for the EC50 with HBV [1] (setting [4]) and with HBV [2] (setting [5]) were 0.21 µM and 0.19 µM, respectively. The CC50 at 4 days in series [3] is > 25000 nM.
Take `COC(=O)N1CC(C)(NS(=O)(=O)c2cccc(C(=O)Nc3ccc(F)c(C)c3)c2)C1` [Compound 157]: the EC50 with HBV [1] (setting [4]) worked out at 0.23 µM; with HBV [2] (setting [5]), 0.13 µM. In addition, in series [3], the CC50 at 4 days was > 25000 nM.
For `COC(=O)N1CCC(NS(=O)(=O)c2cccc(C(=O)Nc3ccc(F)c(C)c3)c2)C1` (stereo not drawn) [Compound 158] the same measures were 0.5 µM, 0.15 µM and > 25000 nM.
With `CC1(NS(=O)(=O)c2cccc(C(=O)Nc3ccc(F)c(Br)c3)c2)COC1` [Compound 160, N-(3-bromo-4-fluoro-phenyl)-3-[(3-methyloxetan-3-yl)sulfamoyl]benzamide], the results for the EC50 in the series on HBV [1] (setting [4]) and with HBV [2] (setting [5]) were 0.69 µM and 0.2 µM, respectively. Moreover, the CC50 at 4 days in series [3] is > 25000 nM.
For `Cc1cc(NC(=O)c2cccc(S(=O)(=O)NC(C)c3ccncc3)c2)ccc1F` (stereo not drawn) [Compound 161] the same measures were 0.35 µM, 0.2 µM and > 25000 nM.
For `Cc1cc(NC(=O)c2cccc(S(=O)(=O)NC(C)c3cccnc3)c2)ccc1F` (stereo not drawn) [Compound 162] the same measures were 1.26 µM, 0.17 µM and > 25000 nM.
For `Cc1cc(NC(=O)c2cccc(S(=O)(=O)NC(C)c3ccccn3)c2)ccc1F` (stereo not drawn) [Compound 163], the values for the EC50 in the series with HBV [1] (setting [4]) and in the series on HBV [2] (setting [5]) were 8.53 µM and 0.53 µM, respectively. Also, the CC50 at 4 days in series [3] was > 25000 nM.
As to `Cc1cc(NC(=O)c2cccc(S(=O)(=O)NC(C)C3CCN(C)CC3)c2)ccc1F` (stereo not drawn) [Compound 164], the concentration for a half-maximal effect (EC50) amounted to 0.97 µM in the series on HBV [1] (setting [4]) and 3.71 µM in the series on HBV [2] (setting [5]). Also, in series [3], the CC50 at 4 days was > 25000 nM.
Turning to `Cc1cc(NC(=O)c2cccc(S(=O)(=O)NC(C)CCN3CCOCC3)c2)ccc1F` (stereo not drawn) [Compound 165], the half-maximal effective concentration (EC50) was determined as 0.36 µM in the series with HBV [1] (setting [4]) and 0.71 µM with HBV [2] (setting [5]). For the same compound, the CC50 at 4 days in series [3] was > 25000 nM.
Regarding `Cc1cc(NC(=O)c2cccc(S(=O)(=O)N[C@H](C)c3ccccc3)c2)ccc1F` [Compound 166], the EC50 in the series with HBV [1] (setting [4]) was determined as 2.39 µM; in the series on HBV [2] (setting [5]), 0.19 µM. Also, in series [3], the midpoint of cytotoxicity, the CC50 at 4 days, lay at 14600 nM.
Take `Cc1cc(NC(=O)c2cccc(S(=O)(=O)N[C@@H](C)c3ccccc3)c2)ccc1F` [Compound 167]: the concentration giving a half-maximal response (EC50) with HBV [1] (setting [4]) came to 9.84 µM; in the series with HBV [2] (setting [5]), 0.62 µM. Besides, in series [3], the CC50 at 4 days was > 25000 nM.
For `Cc1cc(NC(=O)c2cccc(S(=O)(=O)NC3Cc4ccccc4C3)c2)ccc1F` [Compound 168] the same measures were 0.37 µM, 0.27 µM and 11800 nM.
For `Cc1cc(NC(=O)c2cccc(S(=O)(=O)NC(C)Cc3ccccc3)c2)ccc1F` (stereo not drawn) [Compound 169], the figures for the EC50 in the series with HBV [1] (read-out: HepG2 117 EC50 (μM)) and in the series with HBV [2] (read-out: HepG2 2.15 EC50 (μM)) were 1.41 µM and 0.24 µM, respectively. In series [3], this compound showed a CC50 at 4 days of 14900 nM.
With `Cc1cc(NC(=O)c2cccc(S(=O)(=O)NCCC3CC3)c2)ccc1F` [Compound 170], the EC50 was 0.45 µM in the series with HBV [1] (setting [4]) and 0.26 µM in the series on HBV [2] (setting [5]). Further, the CC50 at 4 days in series [3] was > 25000 nM.
For `Cc1cc(NC(=O)c2cccc(S(=O)(=O)NC3COCC3O)c2)ccc1F` (stereo not drawn) [Compound 171], the EC50 with HBV [1] (setting [4]) came to 4.39 µM; in the series with HBV [2] (setting [5]) it was 0.79 µM. Also, the CC50 at 4 days in series [3] is > 25000 nM.
For `Cc1cc(NC(=O)c2cccc(S(=O)(=O)N[C@@H]3CCC[C@@H]3O)c2)ccc1F` [Compound 172] the same measures were 0.61 µM, 0.26 µM and > 25000 nM.
For `Cc1cc(NC(=O)c2cccc(S(=O)(=O)N[C@@H]3CCC[C@H]3O)c2)ccc1F` [Compound 173] the same measures were 0.36 µM, 0.37 µM and > 25000 nM.
On to `Cc1cc(NC(=O)c2cccc(S(=O)(=O)N[C@@H](C)C3CC3)c2)ccc1F` [Compound 174], for which the values for the EC50 with HBV [1] (setting [4]) and with HBV [2] (setting [5]) were 2.84 µM and 0.47 µM, respectively. For the same compound, in series [3], the half-maximal cytotoxic concentration (CC50) at 4 days is > 25000 nM.
